Test results as given in the supplement of paper PMC8253809.

Tests used:
[1] = tested on: HGGX42 (H3.3 G34R paediatric high-grade glioma line); experiment: growth inhibition relative to DMSO (0) and positive control (1) (fraction); higher = more growth inhibition
Procedure: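 Paxalisib (GDC0084) x mirdametinib (PD0325901) dose matrix on pHGG cell lines and astrocyte controls, 7 days, adherent 384-well. CellTiter-Glo RLU was normalised (no log2) to fractional activity between DMSO (0) and the positive control (1). Each combination was tested in two plate orientations.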

[2] = tested on: HGGX42; experiment: EC50 (inflection of fitted growth-inhibition curve) (log10 M)
Procedure, shortened: (§1)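 EC50 and maximal response (yFin) were derived from the lowest-AICc fit, either three- or four-parameter log-logistic. The data were pooled CellTiter-Glo luminescence values, log2-transformed and normalised per plate to % activity between negative (solvent) and positive controls. Patient-derived pHGG/DIPG cell lines and astrocyte controls on 1% Geltrex-coated 384-well plates received a 10-point threefold dilution series (mean top concentration 35 μM) by pin tool, in triplicate, for 7 days (iAstro 3 days) at 37 °C, 5% CO2.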

[3] = tested on: DIPGX7 (H3.3 K27M diffuse intrinsic pontine glioma line); experiment: as above
Procedure, shortened: as §1

[4] = tested on: SUDIPGXVII (diffuse intrinsic pontine glioma line); experiment: as above
Procedure, shortened: as §1

[5] = tested on: HGGX2 (paediatric high-grade glioma line); experiment: as above
Procedure, shortened: as §1

[6] = tested on: iAstro (astrocyte control); experiment: as above
Procedure, shortened: as §1

[7] = tested on: HGGX6 (H3.3 G34R paediatric high-grade glioma line); experiment: as above
Procedure, shortened: as §1

[8] = tested on: DIPGX9 (diffuse intrinsic pontine glioma line); experiment: as above
Procedure, shortened: as §1

[9] = tested on: DIPGX29 (H3.3 K27M diffuse intrinsic pontine glioma line); experiment: as above
Procedure, shortened: as §1

[10] = tested on: SUDIPGIV (diffuse intrinsic pontine glioma line); experiment: as above
Procedure, shortened: as §1

[11] = tested on: SUDIPGVI (diffuse intrinsic pontine glioma line); experiment: as above
Procedure, shortened: as §1

[12] = tested on: SUDIPGXIII (diffuse intrinsic pontine glioma line); experiment: as above
Procedure, shortened: as §1

[13] = tested on: SUDIPGXXI (diffuse intrinsic pontine glioma line); experiment: as above
Procedure, shortened: as §1

[14] = tested on: SUDIPGXIX (diffuse intrinsic pontine glioma line); experiment: as above
Procedure, shortened: as §1

[15] = tested on: DIPGX37 (H3.3 K27M diffuse intrinsic pontine glioma line); experiment: as above
Procedure, shortened: as §1

[16] = tested on: HGGX39 (paediatric high-grade glioma line); experiment: as above
Procedure, shortened: as §1

[17] = tested on: SUDIPGXVII; experiment: maximal growth inhibition (yFin) relative to DMSO / staurosporine; higher = more efficacious
Procedure, shortened: as §1

[18] = tested on: HGGX6; experiment: as above
Procedure, shortened: as §1

[19] = tested on: HABS (astrocyte control); experiment: EC50 (inflection of fitted growth-inhibition curve) (log10 M)
Procedure, shortened: as §1

[20] = tested on: HABS; experiment: maximal growth inhibition (yFin) relative to DMSO / staurosporine; higher = more efficacious
Procedure, shortened: as §1

O=C(NOC[C@H](O)CO)c1ccc(F)c(F)c1Nc1ccc(I)cc1F + CC1(C)OCCn2c1nc1c(N3CCOCC3)nc(-c3cnc(N)nc3)nc12 [GDC0084]
growth inhibition, [1]
Conditions	compound 1 concentration 0.009766 µM	compound 1 concentration 0.01953 µM	compound 1 concentration 0.03906 µM	compound 1 concentration 0.07812 µM	compound 1 concentration 0.15625 µM	compound 1 concentration 0.3125 µM	compound 1 concentration 0.625 µM	compound 1 concentration 1.25 µM	compound 1 concentration 5 µM	compound 1 concentration 20 µM
compound 2 concentration 0.03906 µM	0.121	0.215	-0.0211	0.146	-0.0192	0.0136	0.0247	0.074	0.354	0.554
compound 2 concentration 0.07812 µM	0.188	0.255	0.106	0.265	0.148	0.0907	0.211	0.153	0.575	0.609
compound 2 concentration 0.15625 µM	0.307	0.29	0.478	0.322	0.224	0.377	0.32	0.341	0.477	0.686
compound 2 concentration 0.3125 µM	0.494	0.466	0.484	0.515	0.431	0.424	0.294	0.326	0.507	0.716
compound 2 concentration 0.625 µM	0.673	0.632	0.625	0.647	0.57	0.606	0.602	0.528	0.674	0.8
compound 2 concentration 1.25 µM	0.782	0.743	0.746	0.753	0.748	0.706	0.723	0.703	0.803	0.895
compound 2 concentration 5 µM	0.875	0.86	0.872	0.883	0.882	0.872	0.881	0.876	0.93	0.979
compound 2 concentration 20 µM	0.898	0.898	0.901	0.911	0.908	0.899	0.907	0.908	0.956	0.986

CCN1CCN(Cc2ccc(Nc3ncc(F)c(-c4cc(F)c5nc(C)n(C(C)C)c5c4)n3)nc2)CC1 [ABEMACICLIB]
Conditions	EC50 (log10 M)	maximal growth inhibition [%]
[2]	-6.74	–
[3]	-6.11	–
[4]	-6.01	–
[5]	-6.84	–
[6]	-6.74	–
[7]	-5.83	–
[8]	-6.86	–
[9]	-6.78	–
[10]	-6.04	–
[11]	-6.09	–
[12]	-6.07	–
[13]	-6.6	–
[14]	-6.26	–
[15]	-6.56	–
[16]	-6.29	–
[17]	–	61.1
[18]	–	69.4

COCC1(CO)C(=O)C2CCN1CC2 (centres undefined) [APR-246]
Conditions	EC50 (log10 M)	maximal growth inhibition [%]
[2]	-4.72	–
[3]	-4.79	–
[4]	-4.81	–
[5]	-4.71	–
[6]	-4.91	–
[7]	-4.81	–
[8]	-4.82	–
[9]	-4.85	–
[10]	-4.81	–
[11]	-4.72	–
[12]	-4.77	–
[13]	-5.41	–
[14]	-4.78	–
[15]	-4.79	–
[17]	–	99
[18]	–	90.1

CN1[C@@H]2CC[C@H]1C[C@@H](OC(=O)c1cc(Cl)cc(Cl)c1)C2 [BEMESETRON]
Conditions	EC50 (log10 M)	maximal growth inhibition [%]
[2]	-5.38	–
[3]	-5.23	–
[4]	-4.9	–
[5]	-4.99	–
[6]	-5.08	–
[7]	-4.86	–
[8]	-4.9	–
[9]	-5.09	–
[10]	-4.99	–
[13]	-5.63	–
[14]	-4.85	–
[15]	-5.32	–
[16]	-5.05	–
[17]	–	44.2
[18]	–	63.8
[19]	-4.73	–
[20]	–	20.8

Cc1noc2c1-c1ccccc1C(c1ccc(Cl)cc1)=N[C@H]2CC(N)=O [CPI-0610]
Conditions	EC50 (log10 M)	maximal growth inhibition [%]
[2]	-5.3	–
[3]	-4.88	–
[4]	-5.39	–
[5]	-5.42	–
[6]	-5.98	–
[7]	-5.43	–
[8]	-5.71	–
[9]	-5.05	–
[10]	-5.51	–
[11]	-5.11	–
[13]	-6.13	–
[14]	-5.17	–
[16]	-4.96	–
[17]	–	63.3
[18]	–	41.6
[19]	-5.3	–
[20]	–	72.8

CC1(C)OCCn2c1nc1c(N3CCOCC3)nc(-c3cnc(N)nc3)nc12 [GDC0084] + O=C(NOC[C@H](O)CO)c1ccc(F)c(F)c1Nc1ccc(I)cc1F [PD0325901]
growth inhibition, [1]
Conditions	compound 1 concentration 0.009766 µM	compound 1 concentration 0.01953 µM	compound 1 concentration 0.03906 µM	compound 1 concentration 0.07812 µM	compound 1 concentration 0.15625 µM	compound 1 concentration 0.3125 µM	compound 1 concentration 0.625 µM	compound 1 concentration 1.25 µM	compound 1 concentration 5 µM	compound 1 concentration 20 µM
compound 2 concentration 0.03906 µM	-0.12	-0.197	0.0384	0.0281	0.284	0.461	0.656	0.736	0.874	0.903
compound 2 concentration 0.07812 µM	-0.0889	-0.0669	-0.00719	0.153	0.248	0.404	0.631	0.729	0.855	0.919
compound 2 concentration 0.15625 µM	-0.145	-0.107	-0.0597	0.0866	0.181	0.411	0.625	0.714	0.835	0.915
compound 2 concentration 0.3125 µM	-0.136	0.0502	-0.0893	0.0398	0.184	0.318	0.582	0.644	0.788	0.89
compound 2 concentration 0.625 µM	-0.166	-0.0808	-0.0757	0.0763	0.176	0.471	0.532	0.677	0.822	0.896
compound 2 concentration 1.25 µM	-0.0698	-0.0338	-0.0377	0.08	0.227	0.394	0.576	0.727	0.866	0.908
compound 2 concentration 5 µM	0.307	0.337	0.354	0.431	0.481	0.564	0.688	0.774	0.907	0.95
compound 2 concentration 20 µM	0.486	0.554	0.507	0.615	0.653	0.772	0.853	0.913	0.975	0.985

C=CCn1c(=O)c2cnc(Nc3ccc(N4CCN(C)CC4)cc3)nc2n1-c1cccc(C(C)(C)O)n1 [MK-1775]
Conditions	EC50 (log10 M)	maximal growth inhibition [%]
[2]	-5.45	–
[3]	-5.75	–
[4]	-5.54	–
[5]	-6.67	–
[6]	-6.04	–
[7]	-5.72	–
[8]	-5.33	–
[9]	-6.91	–
[10]	-5.92	–
[13]	-6.07	–
[14]	-6.03	–
[15]	-6.2	–
[16]	-5.05	–
[17]	–	25.1
[18]	–	24.9
[19]	-5.41	–
[20]	–	26.7
